Assay results reported in US9487489B2, “Halogen-substituted pyrazole derivatives as pest-control agents” (BAYER CROPSCIENCE AKTIENGESELLSCHAFT, priority 2013, dated 2016).

Key:
[1] = logP determination by HPLC on a reversed-phase column (C18), EEC Directive 79/831 Annex V.A8; type: physicochemical; conditions: HPLC on reversed-phase column (C18), acetonitrile/water with formic acid, EEC Directive 79/831 Annex V.A8
Outline: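 Per EEC 79/831 Annex V.A8, values derive from HPLC retention at 2.0 ml/min and 55° C on a 50*4.6 C18 column. The 10→95% acetonitrile gradient (0.1%/0.09% formic acid) lasted 4.25 min plus a 1.25 min hold; mass detection was by MSD.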

[2] = system: cattle ticks (Boophilus microplus) Parkhurst strain, SP-resistant; experiment: Boophilus microplus dip test (BOOPMI Dip); type: in vivo; conditions: application rate 100 ppm, assessed after 7 days
Method: B. Boophilus microplus-dip Test (BOOPMI Dip)
Test animals: cattle ticks (Boophilus microplus) Parkhurst strain, SP-resistant
Solvent: dimethyl sulphoxide
10 mg of active compound are dissolved in 0.5 ml of dimethyl sulphoxide. For the purpose of preparing a suitable formulation, the active compound solution is diluted with water to the concentration desired in each case.
This active compound preparation is pipetted into tubes. 8-10 adult engorged female cattle ticks (Boophilus microplus) are transferred into a further tube with holes. The tube is immersed into the active compound formulation, and all ticks are completely wetted. After the liquid has run out, the ticks are transferred on filter discs into plastic dishes and stored in a climate-controlled room.
The activity is assessed after 7 days by laying of fertile eggs. Eggs whose fertility is not visible from the outside are stored in a climate-controlled cabinet until the larvae hatch after about 42 days. An efficacy of 100% means that none of the ticks has laid any fertile eggs; 0% means that all eggs are fertile.

[3] = system: larvae of the mustard beetle (Phaedon cochleariae); experiment: Phaedon cochleariae spray test (PHAECO); type: in vivo; conditions: Chinese cabbage leaf discs, after 7 days
Outline: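 Kill of mustard beetle larvae is read as % mortality 7 days after spraying. Spray liquid: active compound in acetone plus dimethylformamide, brought up with water holding 1000 ppm alkylaryl polyglycol ether emulsifier and diluted further in emulsifier-water.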

[4] = system: engorged adult female cattle ticks (Boophilus microplus); experiment: Boophilus microplus injection test (BOOPMI Inj); type: in vivo; conditions: application rate 20 μg/animal; injection into abdomen; assessed after 7 days
Outline: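 Efficacy is read at 7 days as fertile egg laying (100% = no fertile eggs laid; 0% = all eggs fertile), with eggs of unclear fertility stored until larvae hatch at about 42 days. Five engorged adult females per dose each receive an abdominal injection of 1 μl compound dissolved in DMSO.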

[5] = system: adult cat fleas (Ctenocephalides felis); experiment: Ctenocephalides felis oral test (CTECFE); type: in vivo; conditions: application rate 100 ppm in citrated cattle blood; after 2 days
Outline: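 Mortality read at 2 days as percent of fleas killed. Compound predissolved in DMSO, diluted into citrated cattle blood and offered to roughly 20 unfed adult C. felis via parafilm membrane feeder.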

[6] = system: L1 larvae of the Australian sheep blowfly (Lucilia cuprina); experiment: Lucilia cuprina test (LUCICU); type: in vivo; conditions: application rate 100 ppm; after 2 days
Outline: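 Percent mortality read at 2 days; 100% = all larvae killed, 0% = none. Test compound, predissolved in DMSO and water-diluted to the wanted level, was mixed into minced horsemeat holding roughly 20 first-instar larvae.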

[7] = system: adult houseflies (Musca domestica); experiment: Musca domestica test (MUSCDO); type: in vivo; conditions: application rate 100 ppm; after 2 days
Outline: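 Groups of 10 adult Musca domestica exposed to a sugar-soaked sponge treated with the water-diluted DMSO preparation of compound at the chosen concentration. Percent kill read at day 2, where 0% means no flies killed and 100% all killed.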

[8] = system: green peach aphid (Myzus persicae); experiment: Myzus persicae spray test (MYZUPE); type: in vivo; conditions: Chinese cabbage leaf discs, after 6 days
Method: G. Myzus persicae-spray Test (MYZUPE)
Solvents: 78 parts by weight of acetone
• 1.5 parts by weight of dimethylformamide Emulsifier: alkylaryl polyglycol ether
To produce a suitable preparation of active compound, 1 part by weight of active compound is dissolved using the stated parts by weight of solvent and made up with water comprising an emulsifier concentration of 1000 ppm until the desired concentration is reached. To produce further test concentrations, the preparation is diluted with emulsifier-containing water.
Discs of Chinese cabbage leaves (Brassica pekinensis) infested by all stages of the green peach aphid (Myzus persicae) are sprayed with an active compound preparation of the desired concentration.
After 6 days, the efficacy in % is determined 100% here means that all of the aphids have been killed; 0% means that no aphids have been killed.

[9] = system: caterpillars of the armyworm (Spodoptera frugiperda); experiment: Spodoptera frugiperda spray test (SPODFR); type: in vivo; conditions: maize leaf discs, after 7 days
Outline: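 Percent kill read at day 7 on caterpillar-infested maize leaf discs. Discs were first sprayed with aqueous emulsifier-containing (1000 ppm) preparations made from acetone/dimethylformamide solutions, and dried. Scale: 0% none dead, 100% all dead.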

[10] = system: adult cat fleas (Ctenocephalides felis); experiment: Ctenocephalides felis in vitro contact test with adult cat fleas (T1); conditions: after 48 h
Outline: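 Adult cat fleas (Ctenocephalides felis), 5-10 per tube, were exposed to the inner surface of 25 ml test tubes coated with compound in acetone. Tubes were incubated lying flat under ambient conditions. Efficacy was then read by standing tubes upright and knocking the fleas to the floor. Fleas that stayed motionless or moved uncoordinatedly counted as dead or moribund, where 100% means all fleas dead or moribund and 0% means none harmed.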

[11] = system: adult dog ticks (Rhipicephalus sanguineus); experiment: Rhipicephalus sanguineus in vitro contact test with adult brown dog ticks (T2); conditions: after 48 h
Outline: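 Acetone solutions coated onto test tube walls and floor, giving 5 μg/cm^2 at 900 ppm. Five to ten adult ticks held per tube in the dark at room temperature for 48 h, then heated at 45-50° C for up to 5 min; efficacy is the percentage of dead or moribund ticks unable to climb away.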

[12] = system: greenhouse red spider mite (Tetranychus urticae); experiment: Tetranychus urticae spray test, OP-resistant (TETRUR); type: in vivo; conditions: bean leaf discs, after 6 days
Outline: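 Percent kill, scored 6 days post-spray (0% = none dead, 100% = all dead), on Phaseolus vulgaris leaf discs infested with every life stage of the OP-resistant spider mite. Compound dissolved in acetone plus DMF, diluted to test concentration with emulsifier-containing water (1000 ppm).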

| Structure (SMILES) | logP [1] | efficacy (laying of fertile eggs) [2] [%] | efficacy in % ([3]; application rate 100 g/ha) [%] | efficacy (laying of fertile eggs) [4] [%] | efficacy (kill in %) [5] [%] | efficacy (kill in %) [6] [%] | efficacy (kill in %) [7] [%] | efficacy in % ([8]; application rate 500 g/ha) [%] | efficacy in % ([3]; application rate 500 g/ha) [%] | efficacy in % ([9]; application rate 500 g/ha) [%] | efficacy (dead or moribund fleas) ([10]; application rate 1 μg/cm^2) [%] | efficacy (dead or moribund fleas) ([10]; application rate 5 μg/cm^2) [%] | efficacy (dead or moribund ticks) ([11]; application rate 1 μg/cm^2) [%] | efficacy (dead or moribund ticks) ([11]; application rate 5 μg/cm^2) [%] | efficacy in % ([12]; application rate 500 g/ha) [%] | efficacy in % ([8]; application rate 100 g/ha) [%] | efficacy in % ([9]; application rate 100 g/ha) [%] | efficacy in % ([12]; application rate 100 g/ha) [%] |
| --- | --- | --- | --- | --- | --- | --- | --- | --- | --- | --- | --- | --- | --- | --- | --- | --- | --- | --- |
| Cc1ccc(-c2cnn(-c3c(C(F)(F)F)c(C(F)(F)C(F)(F)F)nn3C)c2)cc1C(=O)NC1CC1 [Ic-130] | 3.76 | 100 | 100 | – | – | – | – | – | – | – | – | – | – | – | – | – | – | – |
| Cn1nc(C(F)(F)C(F)(F)F)c(C(F)(F)F)c1-n1cc(-c2cncc(C(=O)NC3CC3)c2)cn1 [Ic-70] | – | – | – | 100 | 100 | 100 | 100 | 90 | 100 | 100 | 100 | 100 | 100 | 100 | – | – | – | – |
| Cn1nc(C(F)(F)C(F)(F)F)c(C(F)(F)F)c1-n1cc(-c2cncc(C(=O)NC3(C#N)CC3)c2)cn1 [Ic-71] | – | – | – | 100 | 100 | 100 | 80 | 100 | 100 | 100 | 100 | 100 | 80 | 100 | 100 | – | – | – |
| Cn1nc(C(F)(F)C(F)(F)F)c(C(F)(F)F)c1-n1cc(-c2cc(C(=O)NC3CC3)ccc2F)cn1 [Ic-41] | – | – | – | 100 | 100 | 100 | 100 | 100 | 100 | 100 | 100 | 100 | – | – | 100 | – | – | – |
| Cn1nc(C(F)(F)C(F)(F)F)c(C(F)(F)F)c1-n1cc(-c2ccc(Cl)c(C(=O)NC3CSC3)c2)cn1 [Ic-28] | 4.09 | – | 100 | 100 | 100 | 100 | 100 | – | – | – | 100 | 100 | – | 100 | – | 90 | 100 | 100 |
| Cc1nnc(NC(=O)c2cc(-c3cnn(-c4c(C(F)(F)F)c(C(F)(F)C(F)(F)F)nn4C)c3)ccc2Cl)o1 [Ic-158] | – | 100 | – | 100 | 100 | 100 | 90 | – | – | – | 100 | 100 | – | – | – | – | – | – |
| Cn1nc(C(F)(F)C(F)(F)F)c(C(F)(F)F)c1-n1cc(-c2cc(F)c(F)c(C(=O)NC3CC3)c2)cn1 [Ic-55] | – | – | – | 100 | 100 | 100 | 100 | 100 | 100 | 100 | – | – | – | – | 80 | – | – | – |
| Cn1nccc1NC(=O)c1cc(-c2cnn(-c3c(C(F)(F)F)c(C(F)(F)C(F)(F)F)nn3C)c2)ccc1Cl [Ic-163] | – | – | – | 100 | 100 | 100 | 90 | 90 | 100 | 100 | 100 | 100 | 100 | – | 100 | – | – | – |
| Cn1nc(C(F)(F)C(F)(F)F)c(C(F)(F)F)c1-n1cc(-c2ccc(Cl)c(C(=O)NC3(C(N)=O)CC3)c2)cn1 [Ic-29] | 3.07 | 80 | 100 | 100 | 100 | 100 | 100 | – | – | – | 100 | 100 | – | – | – | – | 100 | – |
| Cn1nc(C(F)(F)C(F)(F)F)c(C(F)(F)F)c1-n1cc(-c2cccc(C(=O)NC3(C#N)CC3)c2F)cn1 [Ic-40] | – | – | – | 100 | 100 | 100 | 100 | 100 | 100 | 100 | – | – | – | – | 100 | – | – | – |
| Cn1nc(C(F)(F)C(F)(F)F)c(C(F)(F)F)c1-n1cc(-c2ccc(F)c(C(=O)NC3(C#N)CC3)c2F)cn1 [Ic-175] | – | 90 | – | 100 | 100 | 100 | 100 | – | 100 | 100 | 100 | 100 | – | – | 100 | – | – | – |
